Patent US20060041123A1, “Antibacterial agents” (priority 2002, published 2006)
Read-outs that look alike come from different tables or passages of the source.

Experiment: Antimicrobial activity assay: whole-cell MIC by broth microdilution (NCCLS M7-A6)
Type: cell-based
Experimental: Whole-cell antimicrobial activity was determined by broth microdilution using the National Committee for Clinical Laboratory Standards (NCCLS) recommended procedure, Document M7-A6, “Methods for Dilution Susceptibility Tests for Bacteria that Grow Aerobically”. The compounds were tested in serial two-fold dilutions ranging from 0.016 to 16 mcg/mL. Compounds were evaluated against a panel of Gram-positive organisms, including Staphylococcus aureus WCUH29, Streptococcus pneumoniae 1629, Streptococcus pyogenes CN 10, and Enterococcus faecalis 2. In addition, compounds were evaluated against a panel of Gram-negative strains including Haemophilus influenzae NEMC1, E. coli 7623, and Moraxella catarrhalis Ravasio. The minimum inhibitory concentration (MIC) was determined as the lowest concentration of compound that inhibited visible growth. A mirror reader was used to assist in determining the MIC endpoint.
Compounds of the present invention have MIC's ≦20 μg/ml versus all the organisms named above.

[1] = versus all the organisms named above (S. aureus WCUH29, S. pneumoniae 1629, S. pyogenes CN 10, E. faecalis 2, H. influenzae NEMC1, E. coli 7623, M. catarrhalis Ravasio), read-out: MIC

Structure (SMILES) | MIC [µg/mL] | MIC [1] [µg/mL]
COc1ccc2ncc(Cl)c(C(O)CN3CCC(NCc4ccc5c(n4)NC(=O)CO5)CC3)c2n1.Cl.Cl (racemic) [Example 1, 6-({1-[(Racemic)-2-(3-Chloro-6-methoxy-[1,5]naphthyridin-4-yl)-2hydroxy-ethyl]-piperidin-4-ylamino}-methyl)-4H-pyrido[3,2-b][1,4]oxazin-3-one Dihydrochloride] | ≤ 2 | 
COc1ccc2ncc(F)c(CCN3CC[C@@H](NCc4cc5c(cn4)OCCO5)[C@H](O)C3)c2c1.Cl.Cl (relative stereo) [Example 117, trans-4-[(2,3-dihydro[1,4]dioxino[2,3-c]pyridin-7-ylmethyl)amino]-1-{2-[3-fluoro-6-(methoxy)-4-quinolinyl]ethyl}-3-piperidinol dihydrochloride] |  | ≤ 2
COc1ccc2ncc(F)c(CCN3CC[C@@H](NCc4ccc5c(n4)NC(=O)CO5)[C@H](O)C3)c2c1.Cl.Cl (relative stereo) [Example 133, trans-6-{[(1-{2-[3-fluoro-6-(methoxy)-4-quinolinyl]ethyl}-3-hydroxy-4-piperidinyl)amino]methyl}-2H-pyrido[3,2-b][1,4]oxazin-3(4H)-one dihydrochloride] |  | ≤ 2
COc1ccc2ncc(Cl)c(CCN3CC[C@H](NCc4ccc5c(n4)NC(=O)CO5)[C@H](O)C3)c2c1.Cl.Cl (single isomer, unassigned; enantiomer 1) [Example 5, 6-({(cis)-1-[2-(3-Chloro-6-methoxy-quinolin-4-yl)-ethyl]-3-hydroxy-piperidin-4-ylamino}-methyl)-4H-pyrido[3,2-b][1,4]oxazin-3-one Dihydrochloride Enantiomer 1] |  | ≤ 2
COc1ccc2ncc(Cl)c(CCN3CC[C@H](NCc4ccc5c(n4)NC(=O)CS5)[C@H](O)C3)c2c1.Cl.Cl (single isomer, unassigned; enantiomer 1) [Example 7, 6-({(cis)-1-[2-(3-Chloro-6-methoxy-quinolin-4-yl)-ethyl]-3-hydroxy-piperidin-4-ylamino}-methyl)-4H-pyrido[3,2-b][1,4]thiazin-3-one Dihydrochloride Enantiomer 1] |  | ≤ 2
COc1ccc2ncc(Cl)c(CCN3CC[C@H](NCc4ccc5c(n4)NC(=O)CS5)[C@H](O)C3)c2n1.Cl.Cl (single isomer, unassigned; enantiomer 1) [Example 11, 6-({(cis)-1-[2-(3-Chloro-6-methoxy-[1,5]naphthyridin-4-yl)-ethyl]-3-hydroxy-piperidin-4-ylamino}-methyl)-4H-pyrido[3,2-b][1,4]thiazin-3-one Dihydrochloride Enantiomer 1] |  | ≤ 2
COc1ccc2ncc(Cl)c(CCN3CC[C@H](NCc4cc5c(cn4)OCCO5)[C@H](O)C3)c2n1.Cl.Cl (single isomer, unassigned; enantiomer 1) [Example 29, (cis)-1-[2-(3-Chloro-6-methoxy-[1,5]naphthyridin-4-yl)-ethyl]-4-[(2,3-dihydro-[1,4]dioxino[2,3-c]pyridin-7-ylmethyl)-amino]-piperidin-3-ol Dihydrochloride Enantiomer 1] |  | ≤ 2
COc1ccc2ncc(F)c(CCN3CC[C@H](NCc4cc5c(cn4)OCCO5)[C@H](O)C3)c2c1.Cl.Cl.Cl.Cl (single isomer, unassigned; enantiomer 1) [Example 34, cis-4-[(2,3-Dihydro-[1,4]dioxino[2,3-c]pyridin-7-ylmethyl)-amino]-1-[2-(3-fluoro-6-methoxy-quinolin-4-yl)-ethyl]-piperidin-3-ol dihydrochloride dihydrochloride Enantiomer 1] |  | ≤ 2
COc1ccc2ncc(Cl)c(C(O)CN3CCC(NCc4cc5c(cn4)OCCO5)CC3)c2n1.Cl.Cl (single isomer, unassigned; enantiomer 1) [Example 35, {1-[2-(3-Chloro-6-methoxy-[1,5]naphthyridin-4-yl)-2-hydroxyethyl]-piperidin-4-yl}-(2,3-dihydro-[1,4]dioxino[2,3-c]pyridin-7-ylmethyl)-amine Dihydrochloride Enantiomer 1] |  | ≤ 2
COc1ccc2ncc(Cl)c(CCN3CC[C@H](NCc4cc5c(cn4)OCCO5)[C@H](O)C3)c2c1.Cl.Cl (single isomer, unassigned; enantiomer 1) [Example 45, cis-1-[2-(3-Chloro-6-methoxy-quinolin-4-yl)-ethyl]-4-[(2,3-dihydro-[1,4]dioxino[2,3-c]pyridin-7-ylmethyl)-amino]-piperidin-3-ol Dihydrochloride Enantiomer 1] |  | ≤ 2
COc1ccc2ncc(F)c(CCN3CC[C@H](NCc4cc5c(cn4)OCCO5)[C@H](O)C3)c2n1.Cl.Cl (single isomer, unassigned; enantiomer 1) [Example 66] |  | ≤ 2
COc1cc(F)c2ncc(F)c(CCN3CC[C@H](NCc4cnc5c(c4)NC(=O)CS5)[C@H](O)C3)c2c1.Cl.Cl (single isomer, unassigned; enantiomer 1) [Example 72] |  | ≤ 2
COc1cc(F)c2ncc(F)c(CCN3CC[C@H](NCc4ccc5c(n4)NC(=O)CS5)[C@H](O)C3)c2c1.Cl.Cl (single isomer, unassigned; enantiomer 1) [Example 73] |  | ≤ 2
COc1cc(F)c2ncc(F)c(CCN3CC[C@H](NCc4cc5c(cn4)OCCO5)[C@H](O)C3)c2c1.Cl.Cl.Cl.Cl (single isomer, unassigned; enantiomer 1) [Example 74] |  | ≤ 2
COc1ccc2ncc(F)c(CCN3CC[C@H](NCc4cnc5c(c4)NC(=O)CS5)[C@H](O)C3)c2c1.Cl.Cl (single isomer, unassigned; enantiomer 1) [Example 96] |  | ≤ 2
COc1cc(F)c2ncc(Cl)c(CCN3CC[C@H](NCc4ccc5c(n4)NC(=O)CS5)[C@H](O)C3)c2c1.Cl.Cl (single isomer, unassigned; enantiomer 1) [Example 97] |  | ≤ 2
COc1cc(F)c2ncc(Cl)c(CCN3CC[C@H](NCc4ccc5c(n4)NC(=O)CS5)[C@H](F)C3)c2c1.Cl.Cl (single isomer, unassigned; enantiomer 1) [Example 142, cis-6-{[(1-{2-[3-chloro-8-fluoro-6-(methoxy)-4-quinolinyl]ethyl}-3-fluoro-4-piperidinyl)amino]methyl}-2H-pyrido[3,2-b][1,4]thiazin-3(4H)-one dihydrochloride Enantiomer 1] |  | ≤ 2
COc1cc(F)c2ncc(F)c(CCN3CC[C@H](NCc4ccc5c(n4)NC(=O)CO5)[C@H](F)C3)c2c1.Cl.Cl (single isomer, unassigned; enantiomer 1) [Example 145, cis-6-{[(1-{2-[3,8-difluoro-6-(methoxy)-4-quinolinyl]ethyl}-3-fluoro-4-piperidinyl)amino]methyl}-2H-pyrido[3,2-b][1,4]oxazin-3(4H)-one dihydrochloride, Enantiomer 1] |  | ≤ 2
COc1cc(F)c2ncc(F)c(CCN3CC[C@H](NCc4ccc5c(c4)OCCO5)[C@H](F)C3)c2c1.Cl.Cl (single isomer, unassigned; enantiomer 1) [Example 147, cis-1-{2-[3,8-difluoro-6-(methoxy)-4-quinolinyl]ethyl}-N-(2,3-dihydro-1,4-benzodioxin-6-ylmethyl)-3-fluoro-4-piperidinamine dihydrochloride, Enantiomer 1] |  | ≤ 2
COc1cc(F)c2ncc(F)c(CCN3CC[C@H](NCc4ccc5c(n4)NC(=O)CS5)[C@H](F)C3)c2c1.Cl.Cl (single isomer, unassigned; enantiomer 1) [Example 149, cis-6-{[(-1-{2-[3,8-difluoro-6-(methoxy)-4-quinolinyl]ethyl}-3-fluoro-4-piperidinyl)amino]methyl}-2H-pyrido[3,2-b][1,4]thiazin-3(4H)-one dihydrochloride, Enantiomer 1] |  | ≤ 2
COc1cc(F)c2ncc(F)c(CCN3CC[C@H](NC(=O)c4ccc5c(n4)NC(=O)CS5)[C@H](F)C3)c2c1.Cl (single isomer, unassigned; enantiomer 1) [Example 151, cis-N-(1-{2-[3,8-difluoro-6-(methoxy)-4-quinolinyl]ethyl}-3-fluoro-4-piperidinyl)-3-oxo-3,4-dihydro-2H-pyrido[3,2-b][1,4]thiazine-6-carboxamide hydrochloride Enantiomer 1] |  | ≤ 2
COc1ccc2ncc(Cl)c(CCN3CC[C@@H](NCc4ccc5c(n4)NC(=O)CO5)[C@H](O)C3)c2n1.Cl.Cl.Cl (single isomer, unassigned; enantiomer 1) [Example 153, trans-6-({1-[2-(3-Chloro-6-methoxy-[1,5]naphthyridin-4-yl)-ethyl]-3-hydroxy-piperidin-4-ylamino}-methyl)-4H-pyrido[3,2-b][1,4] oxazin-3-one trihydrochloride Enantiomer 1] |  | ≤ 2
COc1ccc2ncc(Cl)c(CCN3CC[C@@H](NCc4cc5c(cn4)OCCO5)[C@H](O)C3)c2n1 (single isomer, unassigned; enantiomer 1) [Example 154, trans-1-{2-[3-chloro-6-(methoxy)-1,5-naphthyridin-4-yl]ethyl}-4-[(2,3-dihydro[1,4]dioxino[2,3-c]pyridin-7-ylmethyl)amino]-3-piperidinol Enantiomer 1] |  | ≤ 2
COc1ccc2ncc(F)c(C(O)CN3CCC(NCc4cc5c(cn4)OCCO5)CC3)c2c1.Cl.Cl (single isomer, unassigned; enantiomer 1) [Example 156, 2-{4-[(2,3-dihydro[1,4]dioxino[2,3-c]pyridin-7-ylmethyl)amino]-1-piperidinyl}-1-[3-fluoro-6-(methoxy)-4-quinolinyl]ethanol dihydrochloride Enantiomer 1] |  | ≤ 2
